Here are results for 18 compounds from article PMC5896266, “Development of Matrix Metalloproteinase-2 Inhibitors for Cardioprotection” (Frontiers in Pharmacology, 2018).

A word on the IC50: it is the concentration that inhibits the measured activity by half. The EC50 is the concentration that produces a half-maximal response.

Where two headings read alike, the source gives them in different places. Where only a bound is given, the exact number is not on record here.

Test [1] concerns the target T1, MMP-1 (Homo sapiens, UniProt P03956).
T1 sequence (P03956 100-469): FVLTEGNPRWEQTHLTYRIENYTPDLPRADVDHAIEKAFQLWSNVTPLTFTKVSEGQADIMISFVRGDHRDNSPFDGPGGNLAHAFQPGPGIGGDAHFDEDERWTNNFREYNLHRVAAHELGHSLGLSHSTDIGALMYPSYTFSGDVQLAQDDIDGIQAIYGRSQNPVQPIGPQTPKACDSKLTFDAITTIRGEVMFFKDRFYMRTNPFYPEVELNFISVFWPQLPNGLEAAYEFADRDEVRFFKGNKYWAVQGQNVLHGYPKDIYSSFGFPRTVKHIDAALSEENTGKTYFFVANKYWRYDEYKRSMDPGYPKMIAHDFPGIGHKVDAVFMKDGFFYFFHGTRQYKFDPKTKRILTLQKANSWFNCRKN
The settings on record: Figure 1, known MMP-2 inhibitors; cited from earlier work.

For another test, the system named is MMP-2. The settings on record: Figure 1, known MMP-2 inhibitors; cited from earlier work.
For test [2], the target named is T2, Human MMP-2 catalytic domain (Homo sapiens, UniProt P08253, DEL222-396).
T2 construct: Human MMP-2 catalytic domain (residues 110-221, 397-455); made in house
Description: Fluorometric MMP-2 inhibition assay (MTS), catalytic domain. In kind it is biochemical. On the procedure:
In vitro MMP-2 activity was then measured, using a fluorometric assay in a 384 well format. Human MMP-2 catalytic domain (residues 110-221, 397-455) (Feng et al., [2000]) was expressed in E. coli in form of inclusion bodies. The protein was refolded and then purified by means of Ni-NTA affinity and anion exchange chromatography. Inhibition assays were carried out in 50 mM Tris, 5 mM CaCl2, 300 mM NaCl, 20 μM ZnSO4, pH = 7.5 buffer. For inhibition studies the catalytic domain of the enzyme was pre-incubated with varying amount of inhibitor for 30 min. […] After 1 h incubation at 37°C the fluorescence was detected using a Wallac 1420 Victor2 microplate reader at 320 nm/405 nm Ex/Em wavelength. As an alternative substrate we also used 5-FAM-Pro-Leu-Gly-Leu-Dap(QXL™ 520)-Ala-Arg-NH2, where the fluorescence was detected at 485 nm/520 nm. For each inhibitor candidate, the percentage of inhibition was determined in duplicate experiments at six inhibitor concentrations, chosen to observe a 5–95% range of inhibition.
Since hydroxamic acids are reported as the primary zinc-binding motif, we intended to select such a library from the AMRI 200,000 member non-exclusive compound repository as a starting point of our drug discovery efforts. Since only a few compounds were available in the repository as hydroxamic acids and the conversion of acids to hydroxamic acids were not applicable to HT parallel synthesis, we decided first to select free acids from the AMRI's compound collection. […] The selected acids were screened in a fluorescent assay using a recombinant human MMP-2 catalytic fragment and a synthetic peptide substrate. […] The hydroxamic acid pairs of the previously measured acids were then tested.

The target of test [3] is T1, MMP-1. Briefly: MMP-1 inhibition (inhibitory profile). In kind it is biochemical. The settings on record: Table 2. As to the method: (§1) The compounds were measured for MMP-1, 2, 9, 13 to determine their inhibitory profile. Efficiency Index amplifies the two major required effects, selectivity against MMP-1 and the inhibitory activity.
In a further test the target is MMP-13 (Homo sapiens, UniProt P45452). Briefly: MMP-13 inhibition (inhibitory profile). In kind it is biochemical. The settings on record: Table 2. As to the method:
as §1

The target in test [4] is T3, MMP-2 enzyme isolated from rat heart (Rattus norvegicus, UniProt P33436).
T3 construct: we used full-length, active MMP-2 enzymes isolated from healthy young adult rat hearts; from tissue; host or cells: rat heart homogenate (healthy young adult rats)
T3 sequence (P33436 110-662): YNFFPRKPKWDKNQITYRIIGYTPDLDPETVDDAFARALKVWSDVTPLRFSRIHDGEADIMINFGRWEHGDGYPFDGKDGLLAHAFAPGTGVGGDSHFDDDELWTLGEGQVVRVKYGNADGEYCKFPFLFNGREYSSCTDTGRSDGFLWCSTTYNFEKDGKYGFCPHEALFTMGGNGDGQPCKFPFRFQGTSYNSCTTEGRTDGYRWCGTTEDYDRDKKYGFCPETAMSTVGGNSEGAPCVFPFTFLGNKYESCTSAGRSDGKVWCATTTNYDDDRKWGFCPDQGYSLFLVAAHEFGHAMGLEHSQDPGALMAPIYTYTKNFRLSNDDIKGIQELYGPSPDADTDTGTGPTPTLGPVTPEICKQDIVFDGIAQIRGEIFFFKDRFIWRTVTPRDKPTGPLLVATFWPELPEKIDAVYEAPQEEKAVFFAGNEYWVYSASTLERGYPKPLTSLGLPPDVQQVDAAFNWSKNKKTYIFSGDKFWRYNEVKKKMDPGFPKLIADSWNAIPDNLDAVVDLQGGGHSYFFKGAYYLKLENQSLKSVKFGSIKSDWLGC
Description: Gelatin zymography on cardiac MMP-2. Type of test: biochemical. The settings on record: for inhibition at 100 µM: cardiac MMP-2, gelatin zymography, read-out: Inhibition (%)±SEM at 100 μM final MMP inhibitor concentration; for EC50: concentration labelled EC50 in Supplementary Figure 4, doses calculated according to IC doses in vitro. As to the method:
Gelatin zymography was performed as described previously (Kupai et al., [2010]; Bencsik et al., [2017]). MMP-2 was isolated from rat heart homogenates as follows: 50 μg protein/lane were loaded and separated by electrophoresis under non-reducing conditions on an 8% SDS-polyacrylamide gels copolymerized with 2 mg/ml gelatin from porcine skin (Sigma-Aldrich; St. Louis, MO). After electrophoresis, gels were washed in 2.5% Triton-X 100 with gentle agitation and then incubated for 20 h at 37°C in zymography development buffer (50 mM Tris-HCl, pH 7.5, containing 5 mM CaCl2, 200 mM NaCl) in the presence or abscence of the MMP inhibitor compounds. Zymographic gels were stained in a 0.05% Coomassie Brilliant Blue R-250 solution followed by destaining, and then zymograms were scanned. MMP activity was detected as a colorless transparent zone on a blue background and the clear bands in the gel were quantified by densitometry using the Quantity One software (Bio-Rad, Hercules, CA). The obtained density values were measured and percentage of inhibition values were then calculated.
To confirm the MTS screen results, we tested the potential MMP inhibitor molecules on MMP-2 enzyme isolated from rat heart in vitro. Therefore, we applied the MMPIs at 1 and 100 μM final concentration in the enzyme's development buffer (Table 3).
After the chemical optimization of the novel MMP inhibitor lead candidates, we determined their IC50 values by using gelatin zymography. During zymographic analysis, we used full-length, active MMP-2 enzymes isolated from healthy young adult rat hearts. Subsequently, the cardio-cytoprotective effects of the selected candidates having the lowest IC50 values to MMP-2 were tested in cultured neonatal cardiac myocytes subjected to simulated I/R injury. Cardiac myocyte cell culture assay allowed a relatively high throughput biological efficacy testing (Gorbe et al., [2010]) of the selected lead candidates in several dose ranges at different levels of inhibition of MMP-2 activity.

In the next test the target is MMP-9 (Homo sapiens, UniProt P14780). Briefly: MMP-9 inhibition (inhibitory profile). The settings on record: Table 2. Type of test: biochemical. On the procedure: as §1
[5] abbreviates: Table 1, acids vs hydroxamic acids, catalytic fragment.

MMP-9, sequence (P14780 94-707, species assumed): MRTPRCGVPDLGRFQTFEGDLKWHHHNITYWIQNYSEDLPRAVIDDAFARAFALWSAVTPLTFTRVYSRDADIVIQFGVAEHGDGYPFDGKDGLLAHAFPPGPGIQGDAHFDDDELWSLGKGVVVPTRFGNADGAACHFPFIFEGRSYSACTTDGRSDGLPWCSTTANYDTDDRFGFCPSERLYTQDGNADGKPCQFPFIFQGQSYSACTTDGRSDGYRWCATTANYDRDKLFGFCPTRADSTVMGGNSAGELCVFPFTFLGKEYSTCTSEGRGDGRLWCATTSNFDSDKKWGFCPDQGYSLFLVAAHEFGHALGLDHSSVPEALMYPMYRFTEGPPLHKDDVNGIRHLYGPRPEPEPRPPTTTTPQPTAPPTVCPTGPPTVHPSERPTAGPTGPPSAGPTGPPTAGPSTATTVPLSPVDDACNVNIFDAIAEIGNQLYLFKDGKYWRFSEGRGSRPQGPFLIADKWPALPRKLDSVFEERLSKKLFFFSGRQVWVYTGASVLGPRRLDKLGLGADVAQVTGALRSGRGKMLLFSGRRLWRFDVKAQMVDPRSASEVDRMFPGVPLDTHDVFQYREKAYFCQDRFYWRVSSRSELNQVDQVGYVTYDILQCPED
T2 sequence (P08253 with tags, fused parts or gaps DEL222-396 limits assumed): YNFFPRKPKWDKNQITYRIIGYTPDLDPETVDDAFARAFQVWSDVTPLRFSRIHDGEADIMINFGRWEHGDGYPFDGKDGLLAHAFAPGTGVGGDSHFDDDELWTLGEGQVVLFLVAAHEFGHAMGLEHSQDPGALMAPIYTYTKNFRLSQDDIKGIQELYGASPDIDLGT

For the compound `CC1(C)OCC(C(CS(=O)(=O)c2ccc(Oc3ccc(OC(F)(F)F)cc3)cc2)N(O)C=O)O1` (stereo not drawn) [ABT-518], the 50% inhibitory concentration (IC50) on MMP-1 [1] was 8.9 µM; in the test with MMP-2, 0.0008 µM.
Regarding `O=C(NO)c1csc(CN(Cc2ccc(F)cc2)Cc2ccc(OCc3ccccc3)cc2)n1` [AMRI-101H], in test [2] (setting [5]), the IC50 was 12 µM.
The same measure, in the same setting: next, `O=C(O)c1csc(CN(Cc2cccc(Cl)c2)Cc2cccc(C(F)(F)F)c2)n1` [AMRI-102A]: 6.2 µM; `O=C(NO)c1csc(CN(Cc2cccc(Cl)c2)Cc2cccc(C(F)(F)F)c2)n1` [AMRI-102H]: 11 µM; `O=C(O)c1csc(CN(CCC(c2ccccc2)c2ccccc2)Cc2ccccc2F)n1` [AMRI-103A]: 7.6 µM.
Same read-out and setting: to `O=C(NO)c1csc(CN(CCC(c2ccccc2)c2ccccc2)Cc2ccccc2F)n1` [AMRI-103H] belongs 17.6 µM.
`O=C(O)c1csc(CN(Cc2ccc(OCc3ccccc3)cc2)Cc2cccc(F)c2)n1` [MMPI-1133]: the values for the 50% inhibitory concentration (IC50) (against MMP-1 [3]; at MMP-13; in test [2] (Table 2)) were 6.8 µM, 4.7 µM and 25 µM, respectively. The inhibition at 100 µM in test [4] came out at 11.1 ± 1.58%.
Turning to `O=C(O)C(c1ccccc1)N(Cc1ccc(OCc2ccccc2)cc1)Cc1cccc(F)c1` (stereo not drawn) [MMPI-1140], the IC50 against MMP-1 [3] is 12 µM; against MMP-13, 2.6 µM; in test [2] (Table 2), 20 µM; on MMP-9, 39 µM. Moreover, in test [4], the inhibition at 100 µM was 81.1 ± 3.88%.
On to `O=C(O)c1csc(CN(Cc2ccc(OCc3ccccc3)cc2)C(c2ccccc2)c2ccccc2)n1` [MMPI-1155], for which the half-maximal inhibitory concentration (IC50) against MMP-1 [3] was 26 µM; on MMP-13 it was 1.76 µM; in test [2] (Table 2) it was 25 µM; at MMP-9, 10 µM. In addition, in test [4], the inhibition at 100 µM amounted to 47 ± 19.1%.
On to `O=C(O)c1csc(CN(Cc2ccc(F)cc2)Cc2ccc(OCc3ccccc3)cc2)n1` [MMPI-1157], for which the values for the IC50 (against MMP-13; in test [2] (setting [5]); against MMP-9) were 1.6 µM, 3.4 µM and 15 µM, respectively. In test [4], the inhibition at 100 µM is 100%. The EC50 in test [4] is 18 µM.
For `O=C(O)c1c[nH]c(CN(Cc2ccc(F)cc2)Cc2ccc(OC(c3ccccc3)c3ccccc3)cc2)n1` [MMPI-1245], the half-maximal inhibitory concentration (IC50) against MMP-1 [3] amounted to 16 µM; at MMP-13 it was 0.28 µM; in test [2] (Table 2), 35 µM; at MMP-9, 8 µM. In test [4], the inhibition at 100 µM came out at 100%.
For `Cc1ccc(CN(Cc2ccc(OCc3ccccc3)cc2)Cc2nc(C(=O)O)c[nH]2)cc1` [MMPI-1247], the IC50 was determined as 33 µM at MMP-1 [3], 3.3 µM against MMP-13, 15 µM in test [2] (Table 2) and 100 µM on MMP-9. For the same compound, in test [4], the inhibition at 100 µM was 100%. Also, the 50% effective concentration (EC50) in test [4] was 16 µM.
Turning to `O=C(O)c1csc(CN(Cc2ccc(F)cc2)Cc2ccc(OCc3ccncc3)cc2)n1` [MMPI-1248], the IC50 turned out to be 47 µM at MMP-1 [3], 1.24 µM on MMP-13, 8 µM in test [2] (Table 2) and 8.8 µM on MMP-9. The inhibition at 100 µM in test [4] is 100%. Besides, the 50% effective concentration (EC50) in test [4] was 9 µM.
Regarding `O=C(O)c1csc(CN(Cc2ccncc2)Cc2ccc(OCc3ccccc3)cc2)n1` [MMPI-1252], the IC50 against MMP-1 [3] is 115 µM; on MMP-13, 1.5 µM; in test [2] (Table 2) it was 54 µM; against MMP-9 it was no less than 500 µM. In addition, the inhibition at 100 µM in test [4] stood at 100%.
With `O=C(O)c1csc(CN(Cc2ccc(OCc3ccccc3)cc2)Cc2cccnc2)n1` [MMPI-1253], the concentration for half-maximal inhibition (IC50) against MMP-1 [3] is 240 µM; on MMP-13, 8 µM; in test [2] (Table 2), 90 µM; against MMP-9, no less than 500 µM. In test [4], the inhibition at 100 µM was found to be 100%.
On to `O=C(O)c1csc(CN(Cc2ccc(F)cc2)Cc2ccc(-c3ccccc3)cc2)n1` [MMPI-1254], for which the IC50 against MMP-1 [3] is 17 µM; against MMP-13, 3 µM; in test [2] (Table 2), 30 µM; against MMP-9 it was 20 µM. In test [4], the inhibition at 100 µM came to 100%. Moreover, the half-maximal effective concentration (EC50) in test [4] is 32 µM.
As for `O=C(O)c1csc(CN(Cc2ccc(F)cc2)Cc2ccc(OCc3cccnc3)cc2)n1` [MMPI-1260], the concentration for half-maximal inhibition (IC50) against MMP-1 [3] is 51 µM; against MMP-13, 2.5 µM; in test [2] (Table 2), 5.7 µM; on MMP-9, 37 µM. Moreover, the inhibition at 100 µM in test [4] was 100%. Besides, in test [4], the concentration for a half-maximal effect (EC50) was 17.7 µM.
For the compound `CC(C)C(NS(=O)(=O)c1ccc(-c2ccc(Br)cc2)cc1)C(=O)O` (stereo not drawn) [PD 166793], the IC50 in the test with MMP-2 is […].
